The CheMixHub viscosity set

Assay: xn = mol fraction of the nth substance listed

CCCCCCCCCCC + CCCCCCCCCCCC
298.15 K, 101.33 kPa
Conditions	viscosity [mPa·s]
x1 = 0.106	1.314
x1 = 0.2057	1.297
x1 = 0.3093	1.253
x1 = 0.4136	1.236
x1 = 0.5553	1.196
x1 = 0.6095	1.175
x1 = 0.7174	1.143
x1 = 0.8145	1.126
x1 = 0.9084	1.11

CCCCCCCCCCC + CCCCCCCCCCCCCCCC
298.15 K, 101.33 kPa
Conditions	viscosity [mPa·s]
x1 = 0.1095	2.783
x1 = 0.2008	2.549
x1 = 0.3116	2.315
x1 = 0.4052	2.108
x1 = 0.5071	1.905
x1 = 0.6081	1.723
x1 = 0.7051	1.534
x1 = 0.806	1.363
x1 = 0.9031	1.209

CCCCCCCCCCC + CCCCCCCCCCO
viscosity [mPa·s], 100 kPa
Conditions	x1 = 0.1003	x1 = 0.2003	x1 = 0.3005	x1 = 0.3972	x1 = 0.4989	x1 = 0.5997	x1 = 0.7007	x1 = 0.8	x1 = 0.8987
293.15 K	10.47	7.7	5.667	4.374	3.193	2.542	1.992	1.626	1.378
298.15 K	8.685	6.471	4.833	3.775	2.8	2.254	1.793	1.486	1.256
303.15 K	7.267	5.479	4.152	3.283	2.477	2.015	1.628	1.368	1.154
308.15 K	6.125	4.678	3.591	2.873	2.202	1.814	1.508	1.252	1.06
313.15 K	5.2	4.018	3.127	2.533	1.97	1.644	1.376	1.149	0.979
318.15 K	4.447	3.475	2.741	2.26	1.773	1.518	1.256	1.058	0.908
323.15 K	3.825	3.02	2.418	2.006	1.655	1.382	1.152	0.975	0.846

CCCCCCCCCCC + CCCCCCCCCO
viscosity [mPa·s], 100 kPa
Conditions	x1 = 0.1008	x1 = 0.2004	x1 = 0.2999	x1 = 0.3992	x1 = 0.5014	x1 = 0.5978	x1 = 0.6993	x1 = 0.7958	x1 = 0.9
293.15 K	8.362	6.114	4.688	3.479	2.709	2.208	1.803	1.531	1.326
298.15 K	6.989	5.181	4.013	3.028	2.391	1.972	1.634	1.419	1.216
303.15 K	5.885	4.422	3.464	2.653	2.124	1.777	1.529	1.296	1.117
308.15 K	4.99	3.802	3.012	2.342	1.904	1.613	1.391	1.185	1.03
313.15 K	4.264	3.291	2.636	2.084	1.718	1.5	1.271	1.09	0.956
318.15 K	3.665	2.868	2.326	1.867	1.561	1.367	1.164	1.004	0.889
323.15 K	3.17	2.503	2.066	1.685	1.461	1.249	1.07	0.928	0.826

CCCCCCCCCCC + CCCCCCCCO
viscosity [mPa·s], 100 kPa
Conditions	x1 = 0.0994	x1 = 0.2003	x1 = 0.2994	x1 = 0.3986	x1 = 0.498	x1 = 0.5983	x1 = 0.6948	x1 = 0.7982	x1 = 0.899
293.15 K	6.831	5.141	3.839	3.004	2.374	1.965	1.669	1.463	1.271
298.15 K	5.749	4.369	3.31	2.622	2.109	1.77	1.542	1.349	1.164
303.15 K	4.874	3.746	2.878	2.322	1.929	1.622	1.402	1.233	1.071
308.15 K	4.161	3.23	2.519	2.063	1.725	1.473	1.281	1.132	0.987
313.15 K	3.577	2.805	2.223	1.847	1.559	1.341	1.175	1.043	0.915
318.15 K	3.091	2.455	1.978	1.67	1.413	1.224	1.079	0.963	0.848
323.15 K	2.694	2.167	1.774	1.507	1.286	1.123	0.996	0.892	0.792
